Consider one compound from patent US20190350898A1, “METHODS AND COMPOSITIONS FOR TREATMENT OF ALZHEIMER'S DISEASE” (Neurotrope Bioscience, Inc., priority 2018, published 2019).

The experiment concerns patients with advanced Alzheimer's disease. Briefly: ADCS-ADL-SIV (ADCS-ADL Sev) secondary efficacy endpoint, same trial. To be noted: for ADCS-ADL LS Mean difference between 20 μg group and placebo: week 13. It is filed as in vivo, human. How it is done:
Adults aged 55-85 with cognitive deficits present for at least 2 years, MMSE-2 of 4-15, inclusive, and a diagnosis of Alzheimer's dementia were randomly assigned to receive blinded intravenous infusions of bryostatin 24 μg or matching placebo at weeks 0 and 1. The 24 μg and 48 μg doses during the first two weeks of the 20 and 40 μg protocols respectively were considered to be “loading” doses thought to be beneficial from prior experience with Compassionate Use trial patients. Nelson et al., Alzheimers Dis. 2017 58: 521-535. In one arm, the two 24 μg doses were followed by 20 μg doses at weeks 5, 7, 9 and 11 with the Severe Impairment Battery (SIB) measured at baseline and weeks 5, 9, 13, and 15. In a second arm, the two 48 μg doses at weeks 0 and 1 were followed by 40 μg doses at weeks 5, 7, 9, and 11 with the SIB measured at baseline and weeks 5, 9, 13, and 15. The subjects were stratified by MMSE-2 in two strata: Stratum 1 (4-9) and Stratum 2 (10-15). The first primary endpoint was safety and tolerability, assessed by treatment emergent adverse events (TEAEs) with a sample size of 150 subjects randomized 1:1:1. Although efficacy was the secondary measure, the primary efficacy endpoint was SIB improvement at week 13 evaluated using a mixed model for repeated measures. A secondary efficacy endpoint was ADCS-ADL Sev. The primary safety population included all subjects who received at least 1 dose of study drug, and efficacy was evaluated in a modified intent to treat (mITT) population that received at least 1 dose of study drug and had at least one treatment evaluation. Efficacy was evaluated both as a primary end-point in the modified intent-to-treat (mITT) population and also as a primary end point in a Completers population that included all patients that completed the entire protocols as described above.
There was no evidence of treatment by efficacy of acetyl-cholinesterase-inhibitor (AChEI) use interaction. For SIB Total, the two sided p-value for the interaction between treatment and AChEI use was 0.8244 and the two sided p-value for the interaction between treatment, AChEI use and time was 0.9223. Similar results were seen when investigating the effect of AChEI use on treatment effect for ADCS-ADL with p-values of 0.5137 and 0.6256 (two sided), respectively. At week 13, the LS Mean difference between 20 μg group and placebo in SIB Total for AChEI non-users was 2.00 and users was 2.09, and in ADCS-ADL for AChEI non-users was −0.67 and users was 1.99.

Take `CCC/C=C/C=C/C(=O)O[C@H]1/C(=C/C(=O)OC)C[C@H]2C[C@H]([C@@H](C)O)OC(=O)C[C@H](O)C[C@@H]3C[C@H](OC(C)=O)C(C)(C)[C@](O)(C[C@@H]4C/C(=C/C(=O)OC)C[C@H](/C=C/C(C)(C)[C@]1(O)O2)O4)O3` [Bryostatin, bryostatin-1]: the “ADCS-ADL efficacy” value (20 μg dose) was “significant”. Besides, the “ADCS-ADL difference from placebo” value (20 μg dose, completers group) is 1.6 and the “ADCS-ADL difference from placebo” value (20 μg dose, mITT group) stood at 1.4. The “ADCS-ADL, subgroups with and without memantine” value (memantine (Namenda) as background SOC therapy or not) was “not significantly different above placebo”. For the same compound, the “ADCS-ADL LS Mean difference between 20 μg group and placebo” value is, setting by setting: (AChEI non-users) −0.67; (AChEI users) 1.99.
